Reference: US5814600A, “Method and composition for treatment of insulin requiring mammals” (Amylin Pharmaceuticals Inc., priority 1994, dated 1998)
Like-named read-outs stand apart in the source and are kept apart here. One block for each compound: values may come before it.

What was measured:
[1] = system: patients with juvenile-onset diabetes; test: 14-day clinical study: adverse events; format: in vivo, human
From the text: In a 14-day double-blind, placebo controlled clinical study, for example, patients with juvenile-onset diabetes who continued their usual insulin therapy and self-injected tripro-amylin three times daily had lower average blood glucose levels after a test meal than did patients who received insulin and placebo. […] See also Table 2 below. […] These thrice-daily doses of tripro-amylin reflect per day dosages of, respectively, 90, 300, and 900 micrograms per patient. For a patient of average weight, about 70 kg, these reflect doses of 1.3 μg/kg/day, 4.3 μg/kg/day, and 12.9 μg/kg/day. An average per day insulin dose is about 50 units, or 2000 micrograms.
The only adverse events which led a limited number of patients to discontinue the study were gastrointestinal side effects, mainly nausea, which were more frequent only in those patients receiving higher doses of drug. About 20% of patients in the mid- and high-dose groups who reported nausea also experienced vomiting on one or more occasions.

[2] = system: patients with juvenile-onset diabetes; test: 14-day clinical study: insulin challenge to induce hypoglycemia; format: in vivo, human; settings: after overnight fast, after 14 days of therapy
From the text: Following an overnight fast, patients in the 14-day study were challenged with insulin twice: prior to the start of dosing, and after 14 days of placebo or tripro-amylin therapy. The insulin challenge was designed to pharmacologically induce hypoglycemia in a controlled and reproducible manner.

rat soleus muscle = format: cell-based
Protocol: Male Harlan Sprague Dawley rats of approximately 200 g mass were used in order to maintain soleus muscle mass less than 40 mg. The animals were fasted for 4 hours prior to sacrifice by decapitation. The skin was stripped from the lower limb which was then pinned out on cork board. The tendo achilles was cut just above os […]. gastrocnemius reflected out from the posterior aspect of the tibia. M. soleus, a small […], 0.55 mm thick flat muscle on the bone surface of m. gastrocnemius was then stripped clear and the perimysium cleaned off using fine scissors and forceps. M. soleus was then split into equal parts using a blade passed antero-posteriorly through the belly of the muscle to obtain a total of 4 muscle strips from each animal. After dissecting the muscle from the animal, it was kept for a short period in physiological saline. The muscle was not held under tension, as reported in other methodologies since in our hands this had no demonstrable effect on the insulin-sensitivity of radioglucose incorporation into glycogen. Muscles were added to 50 mL Erlenmeyer flasks containing 10 mL of a pregassed Krebs-Ringer bicarbonate buffer containing (mM) NaCl 118.5; KCl 5.94; CaCl2 2.54; MgSO4 1.19; KH2 PO4 1.19; NaHCO3 25; glucose 5.5; and recombinant human insulin (Humulin-R, Eli Lilly, Ind.) and either synthetic rat (Bachem, Torrance, Calif. Lot# ZG485) or synthetic human amylin (Bachem, Torrance, Calif. Lot# ZH144) as detailed below. Methods used to determine the nature and purity of rat and human amylin included quantitative amino acid analysis, gas phase amino acid sequencing, reverse phase HPLC and fast-atom-bombardment mass spectrometry. […] Incorporation of mercury into rat amylin may be a feature of many commercially available batches that have already been used in published studies. Since the peptide was bioactive, its action in muscle was expected to at least qualitatively mimic that of true rat amylin. The mercuric method of cyclization was not used in the synthesis of human amylin, which is found by electrospray ionization mass spectrometry and atomic absorption spectroscopy to be mercury-free. Muscles were assigned to different flasks so that the four muscle pieces from each animal were evenly distributed among the different assay conditions. The incubation media were gassed by gently blowing carbogen (95% O2, 5% CO2) over the surface while it was continuously agitated at 37° C. in an oscillating water bath. pH of gassed media at 37° C. was verified as being between 7.1 and 7.4. After a half-hour preincubation, 0.5 μCi of [U-^14 C]-glucose was added to each flask for a further 60 minutes. Each muscle piece was then rapidly removed, trimmed of tendons, blotted, frozen in liquid N2, weighed and then stored at […] for subsequent determination of ^14 C-glycogen. The incubation medium was also frozen for subsequent analysis. The concentration of human amylin present in the medium at the end of the incubation was determined by radioimmunoassay in surfactant-containing buffer. For both human and rat amylin, the actual mass added to the incubation medium was determined by quantitative amino-acid analysis. Each frozen muscle specimen was placed in a vial with 1 mL 60% potassium hydroxide (wt/vol) and digested at 70° C. for 45 minutes under intermittent vigorous agitation. Dissolved glycogen was precipitated onto the walls of the vial by addition of 3 mL absolute ethanol and overnight cooling at -20° C. After centrifugation for 30 minutes at 2000 x-- g, the supernatant was gently aspirated, the glycogen was again washed with ethanol and centrifuged, the ethanol aspirated and the precipitate dried under vacuum. It was important to evaporate all ethanol to avoid quenching during scintillation counting. The remaining glycogen was redissolved in 1 mL water and 4 mL scintillation fluid and counted for ^14 C. […]

[3] = system: streptozotocin-diabetic rats; test: Liver glycogen in insulin-treated streptozotocin diabetic rats, daily s.c. amylin replacement; format: in vivo, rat; settings: STZ diabetic rats, insulin replacement only
Protocol: There were 68 male Harlan Sprague Dawley rats (mass 301±3 g) in 8 treatment groups. Animals were housed at 22.7±0.8° C. in a 12:12 hour light:dark cycle (experiments being performed during the light cycle) and fed and watered ad libitum (Diet LM-485, Teklad, Madison, Wis.). The rats were sacrificed for harvesting of livers 4 to 5 hours into the light cycle.
Animals were injected with streptozotocin (Sigma Chemical Company, St Louis, Mo.: Sigma 50130) dissolved in water in a dose of 65 mg/kg into the lateral tail vein. […] Maintaining diabetic rats in this metabolic state optimizes survival. Following one week of established diabetes, animals received once daily s.c. injections of amylin vehicle (water for injection) for 5 days given at the time of the insulin injection.
These animals were treated identically to those in group 1 except that the daily subcutaneous injection contained 3 μg (n=5); 10 μg (n=12); 30 μg (n=5); 100 μg (n=5) or 300 μg (n=5) of rat amylin (Bachem lot# WG485^2/). The bioactivity of the peptide used in these experiments was first verified by bioassay, using inhibition of insulin-stimulated radioglucose incorporation into glycogen in the isolated stripped rat soleus muscle. […] The insulin dose in each of the groups of diabetic animals averaged 1.67 U/animal/day. There were no other observable differences in the required management of the different groups.
These animals were derived from the same stock and housed under the same conditions for the same time as those in groups 1-6, but were given no injections. 24 hours after the fifth daily injection of amylin or water (or an equivalent time after admission to the vivarium in the case of group 7 rats), the non-fasted rats were killed by decapitation and the livers immediately removed and frozen in liquid N2, weighed and stored for subsequent determination of glycogen concentration.
Whole livers were powdered while frozen. Approximately 200 mg of powder was further homogenized in 1.0 mL of 0.6M perchloric acid to denature enzymes. 200 μL of the homogenate was neutralized with 0.5 volumes of 1.0M KHCO3 in either of two acetate buffer solutions, one containing 2.0 mL of 200 mM acetate (pH4.8), the other containing the same but with 18.5 U/mL of amyloglucosidase (EC5 3.2.1.3, from Aspergillus nicer, Sigma A3423, Sigma Chemical Company, St Louis, Mo.) added. Following at least 20 minutes incubation at 23° C., the supernatants were assayed for glucose in an analyzer using D-glucose oxidase immobilized enzyme chemistry (Analyzer model 2300-STAT, YSI, Yellow Springs, Ohio). Purified rabbit liver glycogen (Sigma G8876) used as a standard indicated 98±4% recovery of dissolved glycogen and linearity within the range of observed liver glycogen concentrations (r=0.9994). All reagents were of analytical grade or better.
Statistical comparisons were by Student's t-test routines contained in the SYSTAT system (Systat, Evanston, Ill.). All results are reported as means ± standard error of the mean.

[4] = 30 micrograms 3 times daily, 18 patients starting study
[5] = 100 micrograms 3 times daily, 23 patients starting study
[6] = 300 micrograms 3 times daily, 21 patients starting study

Compound: CC[C@H](C)[C@H](NC(=O)[C@@H]1CCCN1C(=O)CNC(=O)[C@H](Cc1ccccc1)NC(=O)[C@H](CC(N)=O)NC(=O)[C@H](CC(N)=O)NC(=O)[C@H](CO)NC(=O)[C@H](CO)NC(=O)[C@H](Cc1c[nH]cn1)NC(=O)[C@@H](NC(=O)[C@H](CC(C)C)NC(=O)[C@H](Cc1ccccc1)NC(=O)[C@H](CC(N)=O)NC(=O)[C@H](C)NC(=O)[C@H](CC(C)C)NC(=O)[C@H](CCCNC(=N)N)NC(=O)[C@H](CCC(N)=O)NC(=O)[C@@H](NC(=O)[C@H](C)NC(=O)[C@@H]1CSSC[C@H](NC(=O)[C@@H](N)CCCCN)C(=O)N[C@@H](CC(N)=O)C(=O)N[C@@H]([C@@H](C)O)C(=O)N[C@@H](C)C(=O)N[C@@H]([C@@H](C)O)C(=O)N1)[C@@H](C)O)C(C)C)C(=O)N[C@@H](CC(C)C)C(=O)N1CCC[C@H]1C(=O)N1CCC[C@H]1C(=O)N[C@H](C(=O)N[C@@H](CC(N)=O)C(=O)N[C@H](C(=O)NCC(=O)N[C@@H](CO)C(=O)N[C@@H](CC(N)=O)C(=O)N[C@H](C(=O)N[C@@H](Cc1ccc(O)cc1)C(N)=O)[C@@H](C)O)C(C)C)[C@@H](C)O [tripro-amylin, ^25,28,29 Pro-human-amylin]
- side effect profile, measures of safety ([1]; 14-day tests): all measures of safety were satisfactory
- Patients reporting any gastrointestinal symptoms [1, 4]: 5
- Patients reporting nausea for more than 7 days [1, 4]: 1
- Patients reporting other events resulting in early discontinuation [1, 4]: 0
- Patients who withdrew from the study with nausea [1, 4]: 1
- Patients reporting any gastrointestinal symptoms [1, 5]: 13
- Patients reporting nausea for more than 7 days [1, 5]: 8
- Patients reporting other events resulting in early discontinuation [1, 5]: 0
- Patients who withdrew from the study with nausea [1, 5]: 1
- Patients reporting any gastrointestinal symptoms [1, 6]: 20
- Patients reporting nausea for more than 7 days [1, 6]: 11
- Patients reporting other events resulting in early discontinuation [1, 6]: 0
- Patients who withdrew from the study with nausea [1, 6]: 8
- patients who reported nausea and also experienced vomiting on one or more occasions ([1]; mid- and high-dose groups): About 20%
- glucose response to insulin challenge compared to placebo group [2]: did not measurably alter the glucose reponse

- EC50 (rat soleus muscle; 4 h): 0.438 nM
Compound: CC[C@H](C)[C@H](NC(=O)[C@H](C)NC(=O)CNC(=O)[C@H](Cc1ccccc1)NC(=O)[C@H](CC(N)=O)NC(=O)[C@H](CC(N)=O)NC(=O)[C@H](CO)NC(=O)[C@H](CO)NC(=O)[C@H](Cc1c[nH]cn1)NC(=O)[C@@H](NC(=O)[C@H](CC(C)C)NC(=O)[C@H](Cc1ccccc1)NC(=O)[C@H](CC(N)=O)NC(=O)[C@H](C)NC(=O)[C@H](CC(C)C)NC(=O)[C@H](CCCNC(=N)N)NC(=O)[C@H](CCC(N)=O)NC(=O)[C@@H](NC(=O)[C@H](C)NC(=O)[C@@H]1CSSC[C@H](NC(=O)[C@@H](N)CCCCN)C(=O)N[C@@H](CC(N)=O)C(=O)N[C@@H]([C@@H](C)O)C(=O)N[C@@H](C)C(=O)N[C@@H]([C@@H](C)O)C(=O)N1)[C@@H](C)O)C(C)C)C(=O)N[C@@H](CC(C)C)C(=O)N[C@@H](CO)C(=O)N[C@@H](CO)C(=O)N[C@H](C(=O)N[C@@H](CC(N)=O)C(=O)N[C@H](C(=O)NCC(=O)N[C@@H](CO)C(=O)N[C@@H](CC(N)=O)C(=O)N[C@H](C(=O)N[C@@H](Cc1ccc(O)cc1)C(N)=O)[C@@H](C)O)C(C)C)[C@@H](C)O [human amylin]

- EC50 (rat soleus muscle; [amylin] 0 nM (nominal), read-out: Insulin dose response: EC50, Mean ± log SE (converted)): 1.16 ± 0.1 nM
- EC50 (rat soleus muscle; [amylin] 3 nM (nominal), read-out: Insulin dose response: EC50, Mean ± log SE (converted)): 0.78 ± 0.12 nM
- EC50 (rat soleus muscle; [amylin] 10 nM (nominal), read-out: Insulin dose response: EC50, Mean ± log SE (converted)): 1.52 ± 0.15 nM
- EC50 (rat soleus muscle; [amylin] 30 nM (nominal), read-out: Insulin dose response: EC50, Mean ± log SE (converted)): 1.33 ± 0.2 nM
- EC50 (rat soleus muscle; absence of amylin, pooled from 7 assays, ±0.07 log units, read-out: EC50 of the insulin response): 1.05 nM
Compound: insulin: recombinant human insulin (Humulin-R, Eli Lilly) in soleus assay; Humulin-Ultralente for daily treatment of diabetic rats
- Insulin dose response: Maximal response, Mean (rat soleus muscle; [amylin] 0 nM (nominal)): 4.09 μmol/g wet tissue/hr
- Insulin dose response: Maximal response, Mean (rat soleus muscle; [amylin] 3 nM (nominal)): 3.45 μmol/g wet tissue/hr
- Insulin dose response: Maximal response, Mean (rat soleus muscle; [amylin] 10 nM (nominal)): 3.12 μmol/g wet tissue/hr
- Insulin dose response: Maximal response, Mean (rat soleus muscle; [amylin] 30 nM (nominal)): 2.13 μmol/g wet tissue/hr
- Insulin dose response: Maximal response, Mean (rat soleus muscle; [amylin] 100 nM (nominal)): 1.15 μmol/g wet tissue/hr
- Insulin dose response: Maximal response, Mean (rat soleus muscle; [amylin] 300 nM (nominal)): 0.93 μmol/g wet tissue/hr
- increment in rate of glycogen labelling (rat soleus muscle; insulin dose response in absence of amylin, pooled from 7 assays): 3.7 fold
- decrease in liver glycogen compared to normal rats ([3]; fed state): ~35%
- liver glycogen concentration ([3]; normal rats 8.6 mg/g): 5.6 mg/g
